Reference: patent US20090318424A1, “NOVEL COMPOUNDS” (priority 2006, published 2009)
Counter-ions that a name gives are not always drawn.

Legend:
[1] = test system: influx of neutrophils to the lung in LPS-challenged rats; experiment: Rat LPS neutrophilia model; type: in vivo; details: LPS aerosol 100 ug/ml 15 min, lavage 4 hours later; in at least one of the range of conditions tested
Protocol: The effect of compounds on the influx of neutrophils to the lung in LPS-challenged rats is evaluated as follows. The test compound is suspended in one of the following solutions: 0.5% tween 80/PBS, 0.5% tween 80/saline, 10% EtOH/saline (with pH adjusted to 2.0, or 8.0 with HCl, or unadjusted), Saline @ pH 2.0, 6.5 or 8.0, 0.5% Tragacanth, 1% DMSO/20% Encapsin/Saline, or acidified 5% Tragacanth. The suspension process may be aided by the use of a glass homogenizer. For intratracheal administration, the animals are anesthetized with inhaled isoflurane and placed in a supine position, the trachea is intubated with a steel gavage needle (1.5 inch, 22 gauge, small ball) or a Penn-Century Microsprayer Aerosolizer (model IA-IB) and 200 ul of dosing solution is delivered. The animals are visually monitored during the recovery process, which typically occurs within two minutes.
Rats treated with compound or vehicle (15 min-24 hours pretreatment) are exposed to an LPS aerosol (100 ug/ml) for 15 min. Four hours later the rats are euthanized with pentobarbital (100 mg/kg, i.p.) and the airways are lavaged with 5 washes of 5 ml of phosphate buffered saline. The harvested cells are stained (Diffquick) and counted to determine total and differential cell data. In a typical study, macrophages represent 40-70% of the total cells, and polymorphonuclear cells 30-60% of the total cells. Inhibition of neutrophil levels relative to no compound controls is calculated based on the differential counts.
The assay has varying conditions, such as concentration, pretreat time, form of the compound (crystalline, amorphous, salts, micronised), and a wet or dry application of the compound. The data is obtained as % inhibition using a particular concentration and pretreat time.

melting point | SMILES | inhibition of neutrophilia [1]
203 to 207 °C (dec.) | CNc1nc(-c2cc(NC(=O)c3ccsc3)ccc2C)c2c(n1)N(c1c(F)cccc1F)C(=O)NC2 [Example 14, N-{3-[8-(2,6-difluorophenyl)-2-(methylamino)-7-oxo-5,6,7,8-tetrahydropyrimido[4,5-d]pyrimidin-4-yl]-4-methylphenyl}-3-thiophenecarboxamide] | –
125 to 127 °C | CCN(CC)C(=O)c1ccc(C)c(-c2nc(NCCN(C)C)nc3c2CNC(=O)N3c2c(F)cccc2F)c1 [156(c), 3-(8-(2,6-difluorophenyl)-2-{[2-(dimethylamino)ethyl]amino}-7-oxo-5,6,7,8-tetrahydropyrimido[4,5-d]pyrimidin-4-yl)-N,N-diethyl-4-methylbenzamide] | –
112 to 115 °C | CCCCN(CCCC)CCCNc1nc(-c2cc(C(=O)NC)ccc2C)c2c(n1)N(c1c(F)cccc1F)C(=O)NC2 [Example 171, 3-[2-{[3-(dibutylamino)propyl]amino}-8-(2,6-difluorophenyl)-7-oxo-5,6,7,8-tetrahydropyrimido[4,5-d]pyrimidin-4-yl]-N,4-dimethylbenzamide] | –
– | Cc1c(F)cc(C(=O)Nc2ccccc2)cc1-c1nc(NCCN(C)C)nc2c1CNC(=O)N2c1c(F)cccc1F [Example 112, 3-(8-(2,6-difluorophenyl)-2-{[2-(dimethylamino)ethyl]amino}-7-oxo-5,6,7,8-tetrahydropyrimido[4,5-d]pyrimidin-4-yl)-5-fluoro-4-methyl-N-phenylbenzamide] | statistically significant inhibition
– | Cc1ccc(C(=O)NC(C)C)cc1-c1nc(N(C)CCCN(C)C)nc2c1CNC(=O)N2c1c(F)cccc1F [34(d), 3-{8-(2,6-difluorophenyl)-2-[[3-(dimethylamino)propyl](methyl)amino]-7-oxo-5,6,7,8-tetrahydropyrimido[4,5-d]pyrimidin-4-yl}-4-methyl-N-(1-methylethyl)benzamide] | statistically nonsignificant inhibition
– | CCCNC(=O)c1ccc(C)c(-c2nc(N(C)CCCN(C)C)nc3c2CNC(=O)N3c2c(F)cccc2F)c1 [Example 53, 3-{8-(2,6-difluorophenyl)-2-[[3-(dimethylamino)propyl](methyl)amino]-7-oxo-5,6,7,8-tetrahydropyrimido[4,5-d]pyrimidin-4-yl}-4-methyl-N-propylbenzamide] | statistically nonsignificant inhibition
– | Cc1ccc(C(=O)Nc2nccs2)cc1-c1nc(N(C)CCCN(C)C)nc2c1CNC(=O)N2c1c(F)cccc1F [Example 124, 3-{8-(2,6-difluorophenyl)-2-[[3-(dimethylamino)propyl](methyl)amino]-7-oxo-5,6,7,8-tetrahydropyrimido[4,5-d]pyrimidin-4-yl}-4-methyl-N-1,3-thiazol-2-ylbenzamide] | statistically nonsignificant inhibition
– | Cc1ccc(C(=O)Nc2nccs2)cc1-c1nc(NCCN(C)C)nc2c1CNC(=O)N2c1c(F)cccc1F [118(c), 3-(8-(2,6-difluorophenyl)-2-{[2-(dimethylamino)ethyl]amino}-7-oxo-5,6,7,8-tetrahydropyrimido[4,5-d]pyrimidin-4-yl)-4-methyl-N-1,3-thiazol-2-ylbenzamide] | statistically significant inhibition
– | Cc1ccc(C(=O)NC(C)C)cc1-c1nc(N2CCCN(C)CC2)nc2c1CNC(=O)N2c1c(F)cccc1F [Example 179, 3-[8-(2,6-difluorophenyl)-2-(4-methylhexahydro-1H-1,4-diazepin-1-yl)-7-oxo-5,6,7,8-tetrahydropyrimido[4,5-d]pyrimidin-4-yl]-4-methyl-N-(1-methylethyl)benzamide Trifluoroacetate] | statistically nonsignificant inhibition
– | Cc1ccc(C(=O)NC(C)C)cc1-c1nc(N2CCC(N3CCC(C)CC3)CC2)nc2c1CNC(=O)N2c1c(F)cccc1F [Example 70, 3-[8-(2,6-difluorophenyl)-2-(4-methyl-1,4′-bipiperidin-1′-yl)-7-oxo-5,6,7,8-tetrahydropyrimido[4,5-d]pyrimidin-4-yl]-4-methyl-N-(1-methylethyl)benzamide] | statistically significant inhibition
– | Cc1ccc(C(=O)Nc2ccc(F)cc2)cc1-c1nc(NCCCN(C)C)nc2c1CNC(=O)N2c1c(F)cccc1F [Example 42, 3-(8-(2,6-difluorophenyl)-2-{[3-(dimethylamino)propyl]amino}-7-oxo-5,6,7,8-tetrahydropyrimido[4,5-d]pyrimidin-4-yl)-N-(4-fluorophenyl)-4-methylbenzamide] | statistically significant inhibition
– | CCN(CC)CCCNc1nc(-c2cc(C(=O)Nc3ccc(F)cc3)ccc2C)c2c(n1)N(c1c(F)cccc1F)C(=O)NC2 [Example 43, 3-[2-{[3-(diethylamino)propyl]amino}-8-(2,6-difluorophenyl)-7-oxo-5,6,7,8-tetrahydropyrimido[4,5-d]pyrimidin-4-yl]-N-(4-fluorophenyl)-4-methylbenzamide] | inactive
– | CSc1nc(-c2cc(NC(=O)c3ccc(C)c(F)c3)ccc2C)c2c(n1)N(c1c(F)cccc1F)C(=O)NC2 [23(c), N-{3-[8-(2,6-difluorophenyl)-2-(methylthio)-7-oxo-5,6,7,8-tetrahydropyrimido[4,5-d]pyrimidin-4-yl]-4-methylphenyl}-3-fluoro-4-methylbenzamide] | inactive
– | Cc1ccc(C(=O)NC(C)C)cc1-c1nc(NC2CCN(Cc3ccccc3)CC2)nc2c1CNC(=O)N2c1c(F)cccc1F [Example 200, 3-(8-(2,6-difluorophenyl)-7-oxo-2-{[1-(phenylmethyl)-4-piperidinyl]amino}-5,6,7,8-tetrahydropyrimido[4,5-d]pyrimidin-4-yl)-4-methyl-N-(1-methylethyl)benzamide] | statistically significant inhibition
– | Cc1ccc(C(=O)Nc2ccc(F)cc2)cc1-c1nc(N2CCC(N3CCCC3)CC2)nc2c1CNC(=O)N2c1c(F)cccc1F [86(c), 3-{8-(2,6-difluorophenyl)-7-oxo-2-[4-(1-pyrrolidinyl)-1-piperidinyl]-5,6,7,8-tetrahydropyrimido[4,5-d]pyrimidin-4-yl}-N-(4-fluorophenyl)-4-methylbenzamide] | statistically nonsignificant inhibition
– | CN(C)CCNc1nc(-c2cccc(C(=O)Nc3ccccc3)c2)c2c(n1)N(c1c(F)cccc1F)C(=O)NC2 [Example 91, 3-(8-(2,6-difluorophenyl)-2-{[2-(dimethylamino)ethyl]amino}-7-oxo-5,6,7,8-tetrahydropyrimido[4,5-d]pyrimidin-4-yl)-N-phenylbenzamide] | statistically significant inhibition
– | Cc1ccc(C(=O)Nc2ccc(F)cc2)cc1-c1nc(N(C)CCCN(C)C)nc2c1CNC(=O)N2c1c(F)cccc1F [Example 9, 3-{8-(2,6-difluorophenyl)-2-[[3-(dimethylamino)-propyl](methyl)amino]-7-oxo-5,6,7,8-tetrahydropyrimido[4,5-d]pyrimidin-4-yl}-N-(4-fluorophenyl)-4-methylbenzamide] | statistically nonsignificant inhibition
– | CSc1nc(-c2cc(NC(=O)c3ccsc3)ccc2C)c2c(n1)N(c1c(F)cccc1F)C(=O)NC2 [7(c), N-{3-[8-(2,6-Difluorophenyl)-2-(methylthio)-7-oxo-5,6,7,8-tetrahydropyrimido[4,5-d]pyrimidin-4-yl]-4-methylphenyl}-3-thiophenecarboxamide] | inactive
